Reference: paper PMC10995199, “Architecture and regulation of filamentous human cystathionine beta-synthase” (Nature Communications, 2024)

Legend:
CBS^Δ516–525 [1] = biological target: T1, CBS^Δ516–525 (Homo sapiens, UniProt P35520, DEL516-525); test: AzMC fluorescence H2S production; format: biochemical; conditions: read-out: Kact
T1 construct: full-length with regulatory domain loop 516-525 deleted, E. coli Rosetta (DE3); dimer; no C-terminal His-tag
T1 sequence (P35520 with tags, fused parts or gaps DEL516-525): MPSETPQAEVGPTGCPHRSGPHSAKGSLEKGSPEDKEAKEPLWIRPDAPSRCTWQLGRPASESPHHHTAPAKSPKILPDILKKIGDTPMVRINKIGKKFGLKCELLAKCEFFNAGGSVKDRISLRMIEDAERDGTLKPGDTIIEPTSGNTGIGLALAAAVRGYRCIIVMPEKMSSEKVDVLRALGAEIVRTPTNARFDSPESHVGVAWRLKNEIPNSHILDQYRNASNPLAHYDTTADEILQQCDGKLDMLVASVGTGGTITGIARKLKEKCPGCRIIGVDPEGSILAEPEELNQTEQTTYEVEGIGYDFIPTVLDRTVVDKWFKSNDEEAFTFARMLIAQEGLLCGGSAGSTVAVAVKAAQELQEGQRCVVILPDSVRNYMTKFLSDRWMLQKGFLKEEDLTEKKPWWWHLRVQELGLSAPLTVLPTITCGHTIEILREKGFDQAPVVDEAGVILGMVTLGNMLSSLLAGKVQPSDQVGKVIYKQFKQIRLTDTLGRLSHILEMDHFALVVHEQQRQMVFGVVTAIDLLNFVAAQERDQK

CBS^Δ516–525 [2] = biological target: T1, CBS^Δ516–525; test: ITC; format: binding; conditions: 25 °C, 20 mM HEPES pH 7.4; two-site fit

C[S+](CC[C@H](N)C(=O)O)C[C@H]1O[C@@H](n2cnc3c(N)ncnc32)[C@H](O)[C@@H]1O (stereo partly drawn) [S-adenosyl-L-methionine]
EC50 (CBS^Δ516–525 [1]): 26 to 36 µM
Kd (CBS^Δ516–525 [2]): also presented two events, though this construct is dimeric
